Assay results from patent US20160326098A1, “Pharmaceutically Active Compound for Use as Anti-inflammatory Agent” (Pax Forschung GmbH, priority 2013, published 2016).

What was measured:
Format in all cases: in vivo
xanthine oxidase enzyme [1] = assay: Xanthine oxidase enzyme activity in tissue, rats with TNBS-induced colitis; conditions: gastric and colon tissue, 1.11 mmol/kg, FIGS. 33a/33b
Method: (§1) Colonic inflammation was induced by intracolonic administration of TNBS (2,4,6-trinitrobenzenesulfonic acid) (40 mg/kg in 0.25 ml of 25% aqueous ethanol) through an 8-cm-long soft plastic catheter under transient diethylether anesthesia. In the sham-operated groups, only the vehicle for TNBS was administered. The animals were deprived of food, but not water, for 12 h before the enemas.
(§2) The XOR activity was determined in the ultrafiltered, concentrated supernatant by fluorometric kinetic assay based on the conversion of pterine to isoxanthopterine in the presence (total XOR) or absence (xanthine oxidase activity) of the electron acceptor methylene blue.
(§3) The above-described clinical studies were repeated with animals having colitis which was induced as described above. […] Two days after the enema the effects of the treatment were determined by measurement of body weight, blood gas analysis and biopsy. […] Surgery was performed to allow registration of the hemodynamic parameters at 1 h intervals for 6 h (cardiac output [CO] data were measured only at the end of the experiments). […] In addition, fluorescence confocal endomicroscopy was performed to examine the microvasculature and morphologic changes of the mucosa of the distal colon, and full-thickness tissue samples and venous blood samples were taken to determine the biochemical changes in the colon and plasma.

colon inflammation = assay: Macroscopic score of colon inflammation, rats with TNBS-induced colitis; conditions: 1.11 mmol/kg, Morris score 0-4, untreated colitis group class 3 to 4, FIG. 29
Method: Colonic inflammation was induced by intracolonic administration of TNBS (2,4,6-trinitrobenzenesulfonic acid) (40 mg/kg in 0.25 ml of 25% aqueous ethanol) through an 8-cm-long soft plastic catheter under transient diethylether anesthesia. In the sham-operated groups, only the vehicle for TNBS was administered. The animals were deprived of food, but not water, for 12 h before the enemas. […] The other animals only received the respective solvent again. Two days after the enema the effects of the treatment were determined by measurement of body weight, blood gas analysis and biopsy. The animals were anesthetized two days after colitis induction. Surgery was performed to allow registration of the hemodynamic parameters at 1 h intervals for 6 h (cardiac output [CO] data were measured only at the end of the experiments). Intravital videomicroscopy was performed at the end of the experiments to visualize the serosal microcirculation 3 cm distal from the cecum. In addition, fluorescence confocal endomicroscopy was performed to examine the microvasculature and morphologic changes of the mucosa of the distal colon, and full-thickness tissue samples and venous blood samples were taken to determine the biochemical changes in the colon and plasma. […]

xanthine oxidase enzyme [2] = assay: Xanthine oxidase enzyme activity in tissue, mice with TNBS-induced colitis; conditions: gastric and colon tissue, 1.11 mmol/kg, FIGS. 14a/14b
Method: as §1, §2, §3

xanthine oxidase enzyme [3] = assay: Xanthine oxidase enzyme activity in tissue, mice with gastric injury without inflammation; conditions: gastric and duodenal tissue, 1.11 mmol/kg, vs control group A, FIGS. 6a/6b
Method: as §2
First experiments regarding the effect of the compound of formula (I) and a pharmaceutical composition comprising the compound of formula (I) (clear aqueous solution of compound of formula (I) at pH 4.8), respectively, on gastric injury without inflammation were conducted on mice. 48 animals were randomly allocated into three groups. Group A (n=16) served as sham-operated controls. Samples of all animals were drawn on day 1 of the clinical tests. On day 2 the animals of group B (n=16) were force-fed acetylsalicylic acid (ASS) (1.11 mmol/kg body weight). Group C (n=16) was force-fed 1.11 mmol/kg body weight of the compound according to the invention. Group A only received the respective solvent (25% ethanol in water). One day after the gavage, additional samples were drawn. Fluorescence confocal endomicroscopy was performed to examine the microvasculature and morphologic changes of the mucosa of the distal colon, […] The effects were determined by way of measurement of body weight, blood gas analysation and biopsy. […]

## CC(=O)Oc1ccccc1C(=O)O [ASS, acetylsalicylic acid, reference compound]
Xanthine oxidase enzyme [1]
  activity of xanthine oxidase enzyme: only a slight decrease in activity
Colon inflammation
  macroscopic score of colon inflammation: slightly less severe symptoms
Xanthine oxidase enzyme [2]
  activity of xanthine oxidase enzyme: only a slight decrease in activity
Xanthine oxidase enzyme [3]
  activity of xanthine oxidase enzyme: increased activity

## CC(=O)Oc1ccccc1C(=O)NC(CO)(CO)CO [compound according to the invention]
Xanthine oxidase enzyme [1]
  activity of xanthine oxidase enzyme: enzyme activity comparable to that of healthy animals
Colon inflammation
  macroscopic score of colon inflammation: only showed increased erythema
Xanthine oxidase enzyme [2]
  activity of xanthine oxidase enzyme: enzyme activity comparable to that of healthy animals
Xanthine oxidase enzyme [3]
  activity of xanthine oxidase enzyme: no such increase
